The structures appear in SMILES notation. Where two headings read alike, the source gives them in different places.

What all share (details): 7 days after inoculation, 405 nm
In experiment [1] the test system is Pyricularia oryzae. Format: cell-based.
Experiment [2] relates to Botrytis cinerea. The experiment can be described thus: Microtest: activity against the grey mold Botrytis cinerea in the microtiterplate test (Botrci). Format: cell-based.
Experiment [3] deals with Septoria tritici.

Turning to `N#Cc1nn(-c2c(Cl)cc(C(F)(F)F)cc2Cl)c(N)c1[S+]([O-])C(F)(F)F` (stereo not drawn) [fipronil], the Observed efficacy in experiment [1] (0.063 ppm) and in experiment [2] (0.016 ppm) was 0 throughout.

The molecule `CN/C(=N\[N+](=O)[O-])NCc1cnc(Cl)s1` [clothianidin] yielded an Observed efficacy in experiment [2] (16 ppm) of 0.

Take `C/C(=N\C#N)N(C)Cc1ccc(Cl)nc1` [acetamipyrid]: the Observed efficacy in experiment [1] (63 ppm) is reported as 0.

For the molecule `COC(=O)N(OC)c1ccccc1COc1ccn(-c2ccc(Cl)cc2)n1` [Pyraclostrobin], the results for the Observed efficacy in experiment [3] (0.004 ppm) and in experiment [1] (0.001 ppm) were 49 and 21, respectively.

As for `CN1COCN(Cc2cnc(Cl)s2)/C1=N\[N+](=O)[O-]` [thiamethoxam], the Observed efficacy in experiment [3] (1 ppm) stood at 62; in experiment [1] (1 ppm), 41; in experiment [2] (16 ppm), 0.

As for `O=[N+]([O-])NC1=NCCN1Cc1ccc(Cl)nc1` [Imidacloprid, imidacloprid], the Observed efficacy in experiment [3] (4 ppm) was found to be 2; in experiment [1] (63 ppm), 0.

As for `COCC(=O)N(c1c(C)cccc1C)C(C)C(=O)OC` (stereo not drawn) [metalaxyl, Metalaxyl], the Observed efficacy in experiment [1] (4 ppm) came out at 0.

The values are drawn from patent publication US20120021905A1, “Pesticidal Mixtures” (priority 2009, published 2012).
